# PubChem BioAssay (NCI)
#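 Grown in 96-well plates, cells were treated for 48 hours with each compound at five concentrations. Insufficient inhibition: endpoint recorded as highest concentration tested. GI50 marks 50% less growth. TGI: total growth inhibition.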
# Columns and labels:
# Assay in all cases: growth of human tumour cells (NCI), 48 h
# ACHN renal = test system: ACHN renal
# BT-549 breast = test system: BT-549 breast
# HCC-2998 colon = test system: HCC-2998 colon
# HOP-92 NSCLC = test system: HOP-92 NSCLC
# MDA-MB-435 = test system: MDA-MB-435
# NCI-H23 lung = test system: NCI-H23 lung
# NCI/ADR-RES ovarian = test system: NCI/ADR-RES ovarian
# OVCAR-8 ovarian = test system: OVCAR-8 ovarian
# UO-31 renal = test system: UO-31 renal
# M14 melanoma = test system: M14 melanoma
SMILES,TGI (ACHN renal),TGI (BT-549 breast),TGI (HCC-2998 colon),TGI (HOP-92 NSCLC),TGI (MDA-MB-435),TGI (NCI-H23 lung),TGI (NCI/ADR-RES ovarian),TGI (OVCAR-8 ovarian),TGI (UO-31 renal),TGI (M14 melanoma),GI50 (ACHN renal),GI50 (BT-549 breast),GI50 (HOP-92 NSCLC),GI50 (NCI-H23 lung),GI50 (NCI/ADR-RES ovarian),GI50 (UO-31 renal)
CCOC(=O)c1cn2c(ccc3sc4ccccc4c(=O)c32)n1,> 100 µM,> 100 µM,> 100 µM,> 100 µM,> 100 µM,> 100 µM,> 100 µM,> 100 µM,> 100 µM,–,–,–,–,–,–,–
CCCCCCCCCCCCCCCCOc1ccc(/C=C/C2=[N+](CCCl)CCO2)cc1,> 100 µM,> 100 µM,> 100 µM,> 100 µM,> 100 µM,–,> 100 µM,> 100 µM,> 100 µM,> 100 µM,–,–,–,–,–,–
CC(C)N(/C(F)=N\C(=O)Nc1ccccc1C(F)(F)F)C(C)C,> 100 µM,–,99 µM,64.2 µM,–,> 100 µM,> 100 µM,> 100 µM,> 100 µM,> 100 µM,–,–,–,–,–,–
O=C1CCCC2=C1CC1=C(CCCC1=O)N2c1cccc([N+](=O)[O-])c1,> 100 µM,> 100 µM,> 100 µM,–,–,> 100 µM,> 100 µM,> 100 µM,> 100 µM,> 100 µM,–,–,–,–,–,–
O=c1[nH]c(=O)n2n1C1C=CC2CC1,> 100 µM,> 100 µM,–,> 100 µM,> 100 µM,> 100 µM,> 100 µM,> 100 µM,> 100 µM,> 100 µM,–,–,–,–,–,–
O=[N+]([O-])c1ccc(O)c(C=NCC2CCCN3CCCCC23)c1 (configuration not stated),89.1 µM,> 100 µM,74.5 µM,–,–,> 100 µM,> 100 µM,> 100 µM,> 100 µM,53.2 µM,–,–,–,–,–,–
COc1ccc(-c2nc3cc(C(F)(F)F)ccc3n2CC2CCCN3CCCCC23)cc1 (configuration not stated),29 µM,–,24.5 µM,27.9 µM,34.3 µM,29 µM,27.1 µM,30.8 µM,38.8 µM,25.6 µM,–,–,–,–,–,–
CCOC(=O)N1N(c2ccccc2)C(=O)C1(c1ccccc1)c1ccccc1,> 100 µM,> 100 µM,> 100 µM,> 100 µM,> 100 µM,> 100 µM,> 100 µM,> 100 µM,> 100 µM,> 100 µM,–,–,–,–,–,–
CCN(CC)CC(=O)Nc1ccc2c(c1)C(=O)c1ccc(NC(=O)CN(CC)CC)cc1C2=O,73.3 µM,–,> 100 µM,> 100 µM,–,> 100 µM,–,94.9 µM,> 100 µM,36.8 µM,–,–,–,–,–,–
Brc1ccc(-c2cc(-c3ccc4c(c3)OCO4)c(-c3cccs3)n2Cc2ccccc2)cc1,> 100 µM,–,> 100 µM,–,> 100 µM,–,> 100 µM,> 100 µM,> 100 µM,> 100 µM,–,–,–,–,–,–
CCOC(=O)C1=C(C)NC(C)=C(C(=O)OCC)C1c1ccc(C)cc1,> 100 µM,> 100 µM,> 100 µM,51.5 µM,> 100 µM,> 100 µM,–,> 100 µM,> 100 µM,> 100 µM,–,–,–,–,–,–
S=C(c1c[nH]c2ccccc12)N1CCCCC1,> 100 µM,> 100 µM,–,–,> 100 µM,> 100 µM,> 100 µM,> 100 µM,–,> 100 µM,–,–,–,–,–,–
COc1cc2cc3c4c(cc(OC)c(OC)c4c2cc1OC)CCN3C(=O)CCC(=O)O,> 100 µM,–,> 100 µM,> 100 µM,–,> 100 µM,–,–,> 100 µM,> 100 µM,–,–,–,–,–,–
Cc1[nH]c(=O)nc(N(CCO)/N=C/c2ccc(Cl)cc2)c1C(=O)Nc1ccc(Cl)cc1,> 100 µM,–,> 100 µM,> 100 µM,> 100 µM,> 100 µM,> 100 µM,> 100 µM,> 100 µM,> 100 µM,–,–,–,–,–,–
NC(=O)CNC(=O)[C@@H]1C[C@@H](OCCC(=O)O)CN1C(=O)OCc1ccccc1,> 100 µM,> 100 µM,–,–,> 100 µM,> 100 µM,> 100 µM,–,> 100 µM,> 100 µM,–,–,–,–,–,–
O=S(=O)(O)c1ccccc1N=Nc1ccc(N=Nc2c(O)ccc3ccccc23)c(S(=O)(=O)O)c1,> 100 µM,> 100 µM,–,> 100 µM,> 100 µM,> 100 µM,> 100 µM,> 100 µM,> 100 µM,> 100 µM,–,–,–,–,–,–
COc1cc2cc(C(=O)N3CC(CCl)c4c3cc(O)c3ccccc43)[nH]c2c(OC)c1OC (configuration not stated),–,9.94 µM,< 0.005 µM,–,–,–,> 50 µM,> 50 µM,> 50 µM,< 0.005 µM,–,–,–,–,–,–
CCc1c(C)c2ccc(OCC(=O)N=Nc3c(O)[nH]c4ccccc34)c(C)c2oc1=O,> 33.3 µM,2.1 µM,–,1.56 µM,–,> 33.3 µM,> 33.3 µM,–,> 33.3 µM,–,> 33.3 µM,0.817 µM,0.69 µM,1.13 µM,> 33.3 µM,> 33.3 µM
C[N+](C)(C)C(C1=CCCC1=O)c1ccccc1 (configuration not stated),64.3 µM,95.5 µM,–,85.3 µM,72.7 µM,> 100 µM,> 100 µM,65.6 µM,> 100 µM,> 100 µM,–,–,–,–,–,–
Cc1ccc([N+](=O)[O-])cc1S(=O)(=O)Nc1ccc(C2=NN(S(=O)(=O)c3cc([N+](=O)[O-])ccc3C)C(c3ccco3)C2)cc1 (configuration not stated),> 100 µM,97.5 µM,–,47.7 µM,> 100 µM,> 100 µM,> 100 µM,> 100 µM,> 100 µM,> 100 µM,–,–,–,–,–,–
COc1cccc(C=C2N=C(C)N(n3c(-c4ccccc4)nc4ccccc4c3=O)C2=O)c1,> 100 µM,> 100 µM,> 100 µM,–,> 100 µM,> 100 µM,–,> 100 µM,> 100 µM,> 100 µM,–,–,–,–,–,–
CN(C)Cc1cc(C(=O)/C=C/c2ccc(F)cc2)cc(CN(C)C)c1O,78.3 µM,–,–,97.5 µM,38.9 µM,> 100 µM,86.2 µM,83.9 µM,38.9 µM,27.4 µM,–,–,–,–,–,–
Cc1nc2cccc([N+](=O)[O-])c2n1CCCN(C)C,> 100 µM,> 100 µM,> 100 µM,–,> 100 µM,> 100 µM,> 100 µM,> 100 µM,> 100 µM,> 100 µM,–,–,–,–,–,–
